In PMC12549899 (Nature Communications, 2025):
Where “and” joins values, the source holds several entries; their conditions need not be identical. Identical values can stand only once. Like-named read-outs stand apart in the source and are kept apart here.

Molecular target: T1, DrOTOP1 G130W/A388W (Danio rerio, UniProt Q7ZWK8, A388W/G130W)
T1 construct: A previously generated codon-optimized full-length DrOTOP1[8]; (UniProt: Q7ZWK8) construct; expressed in transfected cells; host or cells: HEK-293 (CRL-1573, ATCC)
T1 sequence (Q7ZWK8 1-586 G130W/A388W): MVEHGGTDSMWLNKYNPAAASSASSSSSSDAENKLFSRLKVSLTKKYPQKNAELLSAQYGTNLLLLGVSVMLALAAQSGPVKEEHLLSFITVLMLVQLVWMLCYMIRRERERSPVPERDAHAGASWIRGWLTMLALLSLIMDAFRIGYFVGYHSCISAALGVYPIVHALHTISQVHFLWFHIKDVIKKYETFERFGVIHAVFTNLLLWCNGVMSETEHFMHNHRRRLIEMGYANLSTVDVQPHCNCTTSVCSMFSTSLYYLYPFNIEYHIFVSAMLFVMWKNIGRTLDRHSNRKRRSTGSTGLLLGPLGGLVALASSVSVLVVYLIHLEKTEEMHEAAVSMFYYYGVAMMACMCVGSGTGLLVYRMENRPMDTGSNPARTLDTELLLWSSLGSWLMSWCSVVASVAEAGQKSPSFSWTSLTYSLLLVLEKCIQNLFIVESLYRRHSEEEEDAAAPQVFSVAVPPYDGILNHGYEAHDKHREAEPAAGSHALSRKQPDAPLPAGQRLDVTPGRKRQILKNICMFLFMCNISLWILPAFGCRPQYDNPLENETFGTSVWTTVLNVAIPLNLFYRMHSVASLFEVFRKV
Experiment: Whole-cell patch-clamp, inhibition of acid-evoked currents, DrOTOP1 G130W/A388W
Type: cell-based, zebrafish (Danio rerio)
Experimental: Given our limited success in identifying mutations of the central site that disrupt antagonism by C2.2, we tested whether mutations of the central site in a background of G130W (the most impactful outer site mutation) might unmask contributions of this site. Thus, we generated and tested double mutants of G130W with E384A, A274W, and A388W. […] We also measured the dose-dependence of inhibition by C2.2 for both G130W/A388W and G130W/E384A (Fig. 5I, J). […] G130W was tested in parallel to confirm that 100 and 300 μM C2.2 produced dose-dependent inhibition.
HEK-293 cells (CRL-1573, ATCC) were cultured in DMEM (Thermofisher 11995073) containing 10% fetal bovine serum (Life Technology 16000044) and Penicillin-Streptomycin (100 I.U./mL) and (100 µg/mL), respectively. Cells were transfected with WT DrOTOP1 or mutant DrOTOP1 channels in 35 mm petri dishes, with ~ 500 ng DNA and 2 μL TransIT-LT1 transfection reagent (Mirus Bio Corporation, Cat # MIR2300) following the manufacturer’s protocol. All constructs were subcloned into a pcDNA3.1 vector that adds an N-terminal fusion tag consisting of an octahistidine tag followed by eGFP, a Gly-Thr-Gly-Thr linker and a 3C protease cleavage site ([…]) followed by WT DrOTOP1, WT mOTOP1, WT hOTOP1, or mutated DrOTOP1. Point mutations were generated via In-Fusion Cloning (Takara) using single-stranded DNA primers generated through IDT and sequence confirmed by Sanger sequencing (GeneWiz).
Whole-cell patch-clamp recording was performed as previously described[6],[22],[25]. Recordings were made with an Axopatch 200B amplifier, digitized with a Digidata 1322a 16-bit data acquisition system, acquired with pClamp 8.2 and analyzed with Clampfit 10 (Molecular Devices). Recordings were sampled at 5 kHz and filtered at 1 kHz. Patch Pipettes with resistance of […] were fabricated from borosilicate glass, and only recordings with a giga-Ohm seal were used in analysis. Membrane potential was held at −80 mV for the duration of recordings. At the beginning of recordings and between, cells were washed with Tyrode’s solution (see below). Once a giga-Ohm seal was reached, cells were lifted and placed in front of microcapillary tubes controlled by a Fast-Step perfusion system (Warner Instruments) so that extracellular solutions could be rapidly exchanged during each experiment.
Standard Tyrode’s solution consisted of 145 mM NaCl, 5 mM KCl, MgCl2, 2 mM CaCl2, 20 mM D-Glucose, and 10 mM HEPES (for pH 7.4). All other extracellular patch-clamp solutions contained 160 mM NMDG-Cl, 2 mM CaCl2, and the following buffers: 10 mM HEPES (for pH 7.4), 10 mM MES (for pH 6.5-5.5), 10 mM CHES for pH 10, and 10 mM HomoPIPES for (pH 5.0). pH adjusted with HCl. When adding compounds to extracellular solutions, the concentration of DMSO in solution was never higher than 0.3%. The pipette contained intracellular solution made up of 120 mM Cs-aspartate, 15 mM CsCl, 2 mM Mg-ATP, 5 mM EGTA, 2.4 mM CaCl2 (100 nM free Ca^2+), and 10 mM HEPES with a pH of 7.3. All extracellular solution osmolarity was adjusted to 300 mOsm and intracellular osmolarity was adjusted to 290 mOsm.
All data are presented as mean ± SEM unless otherwise noted, and each data point represents an independent replicant. Inhibition of compounds was quantified as ((I2peak-I1)/(I2peak))*100, where I1 is the current immediately before wash-off and I2peak is the maximum recovered current (Supplementary Fig. 2). Hill coefficients were determined by the following equation: Y = Bmax*X^h/(Kd^h + X^h). Absolute IC50 was determined by the following equation: Fifty = (Top + Baseline)/2 Y = Bottom + (Top-Bottom)/(1 + ((Top-Bottom)/(Fifty-Bottom) − 1)*(AbsoluteIC50/X)^HillSlope). pH50 curves (Fig. 6G inset) were determined using the following equation: Y = Bottom + (Top-Bottom)/(1 + (EC/X)^HillSlope) where EC = EC50 control. Graphs with electrophysiological data were made in Graphpad Prism 10 (Graphpad Software Inc). […]

[1] = 100 µM, DrOTOP1 G130W/A388W, single cells

Row | SMILES | Inhibition of currents (10 µM, DrOTOP1 G130W/A388W, single cells or mean, mean) [%] | Inhibition of currents (10 µM, DrOTOP1 G130W/A388W, single cells or mean, single cells) | HillSlope (DrOTOP1 G130W/A388W) | Reduction in sensitivity (IC50) compared with single mutant G130W (DrOTOP1 G130W/A388W) | IC50 (DrOTOP1 G130W/A388W, pH 5.5, read-out: IC50) [µM] | HillSlope (G130W/A388W, best-fit value) | LogAbsoluteIC50 (G130W/A388W, best-fit value) | IC50 (G130W/A388W, best-fit value, Top = 100, Bottom = 0, read-out: AbsoluteIC50) [µM] | Inhibition of currents [1] | inhibition at 100 µM [1] [%]
1 | C=C(C)COc1ccccc1NC(=O)c1nc[nH]c1C [C2.2] | 1.543 | 2.216% and 2.459% and 1.638% and 1.737% and 0.722% and 0.4878% | 1.10 | 3 fold and ~ 3 fold | 397 | 1.1 | 2.599 | 397 | – | –
2 | O=C(/C(=N\O)c1ccccc1)c1ccccc1 [C11, benzil monoxime] | – | – | – | – | – | – | – | – | 63.5701% and 65.9051% and 61.9048% and 72.4545% and 68.6192% | 63.1
